# Test results reported in patent US12668845B2, “Methods for predicting drug responsiveness in cancer patients” (Allarity Therapeutics Europe ApS, priority 2018, dated 2026).
# How the values were obtained:
# RL95-2 = assay: Growth inhibition of cell lines treated with 2X-121; assay type: cell-based; conditions: Homo sapiens; cell line RL95-2, origin Endometrial; read-out: Measured growth inhibition IC50
# HEC-265 = assay: as above; assay type: cell-based; conditions: cell line HEC-265, origin Endometrial; read-out: Measured growth inhibition IC50
# THP-1 = assay: as above; assay type: cell-based; conditions: Homo sapiens; cell line THP-1, origin AML; read-out: Measured growth inhibition IC50
# MDA-MB-453 = assay: as above; assay type: cell-based; conditions: Homo sapiens; cell line MDA-MB-453, origin Breast; read-out: Measured growth inhibition IC50
# Namalwa = assay: as above; assay type: cell-based; conditions: cell line Namalwa, origin Burkitts lymphoma; read-out: Measured growth inhibition IC50
# [1] = cited from earlier work
# Hs578T = assay: Growth inhibition of cell lines treated with 2X-121; assay type: cell-based; conditions: Homo sapiens, Hs-578T; cell line Hs578T, origin Breast; read-out: Measured growth inhibition IC50
# A549 = assay: as above; assay type: cell-based; conditions: Homo sapiens; cell line A549, origin NSCLC; read-out: Measured growth inhibition IC50
# [2] = tested on: P-glycoprotein expressing cells; conditions: cited from earlier work
# MDA-MB-231 = assay: Growth inhibition of cell lines treated with 2X-121; assay type: cell-based; conditions: Homo sapiens; cell line MDA-MB-231, origin Breast; read-out: Measured growth inhibition IC50
# HCC1143 = assay: as above; assay type: cell-based; conditions: Homo sapiens; cell line HCC1143, origin Breast; read-out: Measured growth inhibition IC50
# HEC-251 = assay: as above; assay type: cell-based; conditions: cell line HEC-251, origin Endometrial; read-out: Measured growth inhibition IC50
# SNG-M = assay: as above; assay type: cell-based; conditions: cell line SNG-M, origin Endometrial; read-out: Measured growth inhibition IC50
# MFE-296 = assay: as above; assay type: cell-based; conditions: Homo sapiens; cell line MFE-296, origin Endometrial; read-out: Measured growth inhibition IC50
# HEC-1B = assay: as above; assay type: cell-based; conditions: Homo sapiens; cell line HEC-1B, origin Endometrial; read-out: Measured growth inhibition IC50
# RL = assay: as above; assay type: cell-based; conditions: Homo sapiens; cell line RL, origin NHL B cell lymphoma; read-out: Measured growth inhibition IC50
# JVM-2 = assay: as above; assay type: cell-based; conditions: Homo sapiens; cell line JVM-2, origin MCL; read-out: Measured growth inhibition IC50
# Experimental: (§1) The NCI60 panel of cell lines can be used to determine sensitivity to 2X-121, but it is also possible to use other cell line panels.
# (§2) Baseline DNA chip measurements of 61 of the cancer cell lines in Table 1 (excluding M14 HEC-1 ECC-1 SNG-II HEC-88nu SR IM-9 Namalwa MC/CAR U266 JVM-13 NCEB-1 ARH-77) were performed using Affymetrix HG-U133Plus2 arrays and logit normalized. For each array, the logit transformation was performed followed by a Z-transformation to mean zero and SD 1, and correlated to growth inhibition (−log(GI50)). The expression level of each of the genes of Tables 2 and 3 in each cell line was correlated to the growth of those cell lines (log(GI50)) in the presence of 2X-121. The Pearson correlation coefficient was then determined to identify genes positively and negatively correlated to sensitivity to 2X-121. Tables 2 and 3 show the top positively correlated genes (the biomarkers of sensitivity) and negatively correlated genes (the biomarkers of resistance). In particular, genes with a Pearson correlation greater than 0.25 or below −0.25 can be classified as biomarkers of sensitivity or resistance, respectively.
# C3A = assay: as above; assay type: cell-based; conditions: Homo sapiens; cell line C3A, origin HCC; read-out: Measured growth inhibition IC50
# Experimental: as §1, §2
# HT-1080 = assay: as above; assay type: cell-based; conditions: Homo sapiens; cell line HT-1080, origin Fibrosarcoma; read-out: Measured growth inhibition IC50
# Experimental: as §1, §2
# NCI-H446 = assay: as above; assay type: cell-based; conditions: Homo sapiens; cell line NCI-H446, origin SCLC; read-out: Measured growth inhibition IC50
# Experimental: as §1, §2
# HT = assay: as above; assay type: cell-based; conditions: Homo sapiens; cell line HT, origin DLBCL (GC); read-out: Measured growth inhibition IC50
# Experimental: as §1, §2
# U937 = assay: as above; assay type: cell-based; conditions: Homo sapiens, U-937; cell line U937, origin Histiocytic lymphoma-monocytic; read-out: Measured growth inhibition IC50
# BT-20 = assay: as above; assay type: cell-based; conditions: Homo sapiens; cell line BT-20, origin Breast; read-out: Measured growth inhibition IC50
# NCI-H524 = assay: as above; assay type: cell-based; conditions: Homo sapiens; cell line NCI-H524, origin SCLC; read-out: Measured growth inhibition IC50
# Pfeiffer = assay: as above; assay type: cell-based; conditions: Homo sapiens; cell line Pfeiffer, origin DLBCL (GC); read-out: Measured growth inhibition IC50
# ECC-1 = assay: as above; assay type: cell-based; conditions: Homo sapiens; cell line ECC-1, origin Endometrial; read-out: Measured growth inhibition IC50
# MFE-280 = assay: as above; assay type: cell-based; conditions: Homo sapiens; cell line MFE-280, origin Endometrial; read-out: Measured growth inhibition IC50
# ARH-77 = assay: as above; assay type: cell-based; conditions: Homo sapiens; cell line ARH-77, origin Myeloma; read-out: Measured growth inhibition IC50
# KG-1 = assay: as above; assay type: cell-based; conditions: Homo sapiens; cell line KG-1, origin AML; read-out: Measured growth inhibition IC50
smiles,measurement,setting,value
"O=c1[nH]nc2c3c(cccc13)N=C(CN1Cc3ccccc3C1)N2 [2X-121, 8-(isoindolin-2-ylmethyl)-2,9-dihydro-3H-pyridazino[3,4,5-de]quinazolin-3-one]",IC50,RL95-2,2130 nM
same,IC50,HEC-265,2400 nM
same,IC50,THP-1,5400 nM
same,IC50,MDA-MB-453,6200 nM
same,IC50,Namalwa,2500 nM
same,oral bioavailability,[1],orally bioavailable
same,IC50,Hs578T,9600 nM
same,IC50,A549,2200 nM
same,activity in P-glycoprotein expressing cells,[2],active
same,IC50,MDA-MB-231,25000 nM
same,IC50,HCC1143,3700 nM
same,IC50,HEC-251,1260 nM
same,IC50,SNG-M,1360 nM
same,IC50,MFE-296,670 nM
same,IC50,HEC-1B,7270 nM
same,IC50,RL,2500 nM
same,IC50,JVM-2,14000 nM
same,IC50,C3A,2540 nM
same,IC50,HT-1080,830 nM
same,IC50,NCI-H446,610 nM
same,IC50,HT,660 nM
same,IC50,U937,2700 nM
same,IC50,BT-20,7900 nM
same,IC50,NCI-H524,690 nM
same,IC50,Pfeiffer,710 nM
same,IC50,ECC-1,680 nM
same,IC50,MFE-280,770 nM
same,IC50,ARH-77,3200 nM
same,IC50,KG-1,2000 nM
